Values belong to the molecule of their own block, whether it stands above or below them.
Experiments:
AheGH1 [1] = target: T1, AheGH1 (Paenalicyclobacillus herbarius, UniProt A0A8I3B065); test: spectrophotometric pNPG hydrolysis at […] nm; assay type: biochemical; conditions: 10 mM pNPG, 50 mM HEPES, pH 7.4, 25 °C; product inhibitor
T1 construct: codon-optimised synthetic gene, C-terminal poly-His tag (pCH93b), E. coli BL21(DE3)
T1 sequence (A0A8I3B065 1-452): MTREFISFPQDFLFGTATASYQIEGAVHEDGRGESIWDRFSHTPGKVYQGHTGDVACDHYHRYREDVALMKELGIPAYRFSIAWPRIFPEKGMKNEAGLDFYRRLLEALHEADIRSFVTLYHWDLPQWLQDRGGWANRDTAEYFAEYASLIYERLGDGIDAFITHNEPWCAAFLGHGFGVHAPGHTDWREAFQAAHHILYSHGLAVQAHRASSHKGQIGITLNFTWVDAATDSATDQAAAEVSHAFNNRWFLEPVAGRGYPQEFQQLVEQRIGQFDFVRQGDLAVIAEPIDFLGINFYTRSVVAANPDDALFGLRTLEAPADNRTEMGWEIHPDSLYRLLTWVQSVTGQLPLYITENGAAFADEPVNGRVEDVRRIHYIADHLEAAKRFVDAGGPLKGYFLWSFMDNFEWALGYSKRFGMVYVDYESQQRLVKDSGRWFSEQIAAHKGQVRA

AheGH1 [2] = target: T1, AheGH1; test: spectrophotometric p-nitrophenol release at […] nm, substrate inhibition fit; assay type: biochemical; conditions: 50 mM HEPES, pH 7.4, 25 °C; substrate inhibition constant
purified protein = substrate: O=[N+]([O-])c1ccc(O[C@@H]2O[C@H](CO)[C@@H](O)[C@H](O)[C@H]2O)cc1; test: purified protein; conditions: 50 mM HEPES, pH 7.4, 25 °C

% activity retained at 10 % (w/v) glucose (AheGH1 [1]): 65%
Molecule: OC[C@H]1OC(O)[C@H](O)[C@@H](O)[C@@H]1O (stereo partly shown) [glucose]

K i (AheGH1 [2]): 37 ± 6 mM
Molecule: O=[N+]([O-])c1ccc(O[C@@H]2O[C@H](CO)[C@@H](O)[C@H](O)[C@H]2O)cc1 [pNPG, p‐nitrophenyl‐β‐D‐glucopyranoside]

B1: AheGH1 (Paenalicyclobacillus herbarius) (protein)
chain: MTREFISFPQDFLFGTATASYQIEGAVHEDGRGESIWDRFSHTPGKVYQGHTGDVACDHYHRYREDVALMKELGIPAYRFSIAWPRIFPEKGMKNEAGLDFYRRLLEALHEADIRSFVTLYHWDLPQWLQDRGGWANRDTAEYFAEYASLIYERLGDGIDAFITHNEPWCAAFLGHGFGVHAPGHTDWREAFQAAHHILYSHGLAVQAHRASSHKGQIGITLNFTWVDAATDSATDQAAAEVSHAFNNRWFLEPVAGRGYPQEFQQLVEQRIGQFDFVRQGDLAVIAEPIDFLGINFYTRSVVAANPDDALFGLRTLEAPADNRTEMGWEIHPDSLYRLLTWVQSVTGQLPLYITENGAAFADEPVNGRVEDVRRIHYIADHLEAAKRFVDAGGPLKGYFLWSFMDNFEWALGYSKRFGMVYVDYESQQRLVKDSGRWFSEQIAAHKGQVRA
Km (purified protein): 1400 ± 100 µM | kcat (purified protein): 2.7 ± 0.1 s⁻¹

— paper PMC8048572, “Release of Soybean Isoflavones by Using a β‐Glucosidase from Alicyclobacillus herbarius” (Chembiochem, 2020)
